Here are results for 26 compounds from patent publication US20090221603A1, “HETEROCYCLIC AMIDE DERIVATIVES AS CALCIUM CHANNEL BLOCKERS” (priority 2005, published 2009).

The target of the test is T1, rat brain N-type calcium channel subunits (α1B+α2δ+β1b cDNA subunits) (Rattus norvegicus, UniProt Q02294).
T1 construct: expressed in transfected cells; host or cells: HEK 293 (stably, alternatively transiently, transfected)
Kind of test: N-type calcium channel block, whole cell patch clamp in HEK 293 cells. The test is classed as cell-based. Particulars: holding potential −80 mV to +10 mV. As for the experimental part:
A. Transformation of HEK Cells: • N-type calcium channel blocking activity was assayed in human embryonic kidney cells, HEK 293, stably transfected with the rat brain N-type calcium channel subunits (α1B+α2δ+β1b cDNA subunits). Alternatively, N-type calcium channels (α1B+α2δ+β1b cDNA subunits), L-type channels (α1C+α2δ+β1b cDNA subunits) and P/Q-type channels (α1A+α2δ+β1b cDNA subunits) were transiently expressed in HEK 293 cells. Briefly, cells were cultured in Dulbecco's modified eagle medium (DMEM) supplemented with 10% fetal bovine serum, 200 U/ml penicillin and 0.2 mg/ml streptomycin at 37° C. with 5% CO2. At 85% confluency cells were split with 0.25% trypsin/1 mM EDTA and plated at 10% confluency on glass coverslips. At 12 hours the medium was replaced and the cells transiently transfected using a standard calcium phosphate protocol and the appropriate calcium channel cDNA's. Fresh DMEM was supplied and the cells transferred to 28° C./5% CO2. Cells were incubated for 1 to 2 days prior to whole cell recording.
B. Measurement of Inhibition
Whole cell patch clamp experiments were performed using an Axopatch 200B amplifier (Axon Instruments, Burlingame, Calif.) linked to a personal computer equipped with pCLAMP software. The external and internal recording solutions contained, respectively, 5 mM BaCl2, 10 mM MgCl2, 10 mM HEPES, 40 mM TEACl, 10 mM glucose, 87.5 mM CsCl (pH 7.2) and 108 mM CsMS, 4 mM MgCl2, 9 mM EGTA, 9 mM HEPES (pH 7.2). Currents were typically elicited from a holding potential of −80 mV to +10 mV using Clampex software (Axon Instruments). Typically, currents were first elicited with low frequency stimulation (0.067 Hz) and allowed to stabilize prior to application of the compounds. The compounds were then applied during the low frequency pulse trains for two to three minutes to assess tonic block, and subsequently the pulse frequency was increased to 0.2 Hz to assess frequency dependent block. Data were analyzed using Clampfit (Axon Instruments) and SigmaPlot 4.0 (Jandel Scientific).
A general note: Patch clamp records ionic current or voltage across a cell membrane.

The mark [1] stands for this setting: low frequency stimulation 0.067 Hz (tonic block), read-out: IC50 @ 0.067 Hz.
[2] abbreviates: pulse frequency 0.2 Hz (frequency dependent block), read-out: IC50 @ 0.2 Hz.

Structures are written as SMILES. Where two headings read alike, the source gives them in different places.

T1 sequence (Q02294 whole entry): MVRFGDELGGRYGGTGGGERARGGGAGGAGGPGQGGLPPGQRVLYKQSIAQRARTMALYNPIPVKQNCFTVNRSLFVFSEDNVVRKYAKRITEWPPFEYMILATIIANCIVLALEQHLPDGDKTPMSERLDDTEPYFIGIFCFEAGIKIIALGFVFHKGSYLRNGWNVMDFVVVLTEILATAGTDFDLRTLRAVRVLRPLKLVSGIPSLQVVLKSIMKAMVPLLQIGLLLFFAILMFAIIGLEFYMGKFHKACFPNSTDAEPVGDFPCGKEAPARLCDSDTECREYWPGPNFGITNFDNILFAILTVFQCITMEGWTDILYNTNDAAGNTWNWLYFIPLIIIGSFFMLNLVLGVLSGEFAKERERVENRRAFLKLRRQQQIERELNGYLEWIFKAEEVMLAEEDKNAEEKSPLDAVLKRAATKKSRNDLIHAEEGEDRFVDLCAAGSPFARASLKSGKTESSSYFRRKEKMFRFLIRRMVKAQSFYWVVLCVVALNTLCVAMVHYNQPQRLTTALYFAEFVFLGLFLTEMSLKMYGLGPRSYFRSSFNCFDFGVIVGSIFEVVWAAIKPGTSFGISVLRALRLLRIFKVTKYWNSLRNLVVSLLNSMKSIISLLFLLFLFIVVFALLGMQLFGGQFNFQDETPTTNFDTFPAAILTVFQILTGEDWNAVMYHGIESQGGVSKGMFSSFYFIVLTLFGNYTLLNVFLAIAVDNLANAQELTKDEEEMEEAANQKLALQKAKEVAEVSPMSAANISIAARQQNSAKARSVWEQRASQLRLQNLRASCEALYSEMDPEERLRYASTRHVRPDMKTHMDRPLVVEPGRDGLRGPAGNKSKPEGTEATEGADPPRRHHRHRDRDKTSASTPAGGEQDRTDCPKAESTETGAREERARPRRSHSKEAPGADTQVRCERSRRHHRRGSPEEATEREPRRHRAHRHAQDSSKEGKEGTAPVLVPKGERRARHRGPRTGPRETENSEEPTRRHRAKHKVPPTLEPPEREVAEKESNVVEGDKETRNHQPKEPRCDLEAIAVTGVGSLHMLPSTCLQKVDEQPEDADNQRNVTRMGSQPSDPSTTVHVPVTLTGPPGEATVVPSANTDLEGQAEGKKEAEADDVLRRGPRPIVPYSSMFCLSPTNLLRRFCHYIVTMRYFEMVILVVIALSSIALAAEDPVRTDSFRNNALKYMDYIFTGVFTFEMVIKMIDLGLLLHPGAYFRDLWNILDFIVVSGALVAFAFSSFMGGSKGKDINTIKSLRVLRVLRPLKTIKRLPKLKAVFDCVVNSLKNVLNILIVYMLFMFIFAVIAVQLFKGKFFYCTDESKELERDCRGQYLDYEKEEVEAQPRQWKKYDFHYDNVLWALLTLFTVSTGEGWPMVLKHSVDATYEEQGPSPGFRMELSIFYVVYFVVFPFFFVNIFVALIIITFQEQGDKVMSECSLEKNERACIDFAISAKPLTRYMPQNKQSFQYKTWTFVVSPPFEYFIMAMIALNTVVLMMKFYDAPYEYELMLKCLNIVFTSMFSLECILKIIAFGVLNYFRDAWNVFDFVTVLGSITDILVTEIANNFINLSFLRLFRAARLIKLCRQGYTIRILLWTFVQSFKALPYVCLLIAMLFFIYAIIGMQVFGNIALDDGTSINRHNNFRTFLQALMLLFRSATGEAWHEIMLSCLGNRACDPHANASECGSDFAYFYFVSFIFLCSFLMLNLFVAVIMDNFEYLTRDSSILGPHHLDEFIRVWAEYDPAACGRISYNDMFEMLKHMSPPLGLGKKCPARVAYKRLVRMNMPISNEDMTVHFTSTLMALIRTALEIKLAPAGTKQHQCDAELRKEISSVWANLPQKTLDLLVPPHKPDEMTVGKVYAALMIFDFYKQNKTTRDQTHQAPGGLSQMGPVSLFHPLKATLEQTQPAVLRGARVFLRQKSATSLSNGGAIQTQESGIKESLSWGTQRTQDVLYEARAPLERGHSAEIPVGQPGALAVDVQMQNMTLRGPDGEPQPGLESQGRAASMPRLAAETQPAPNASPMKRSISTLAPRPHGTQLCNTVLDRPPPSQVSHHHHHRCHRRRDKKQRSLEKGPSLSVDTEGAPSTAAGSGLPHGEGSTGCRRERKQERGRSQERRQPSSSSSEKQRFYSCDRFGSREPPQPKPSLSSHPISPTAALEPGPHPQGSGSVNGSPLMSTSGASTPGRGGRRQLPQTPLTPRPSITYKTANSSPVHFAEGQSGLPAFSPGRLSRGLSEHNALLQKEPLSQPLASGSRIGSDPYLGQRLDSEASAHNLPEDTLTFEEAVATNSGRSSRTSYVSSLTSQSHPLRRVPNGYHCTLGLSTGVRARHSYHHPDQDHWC
T1 sequence (P54290 25-944 partner limits assumed): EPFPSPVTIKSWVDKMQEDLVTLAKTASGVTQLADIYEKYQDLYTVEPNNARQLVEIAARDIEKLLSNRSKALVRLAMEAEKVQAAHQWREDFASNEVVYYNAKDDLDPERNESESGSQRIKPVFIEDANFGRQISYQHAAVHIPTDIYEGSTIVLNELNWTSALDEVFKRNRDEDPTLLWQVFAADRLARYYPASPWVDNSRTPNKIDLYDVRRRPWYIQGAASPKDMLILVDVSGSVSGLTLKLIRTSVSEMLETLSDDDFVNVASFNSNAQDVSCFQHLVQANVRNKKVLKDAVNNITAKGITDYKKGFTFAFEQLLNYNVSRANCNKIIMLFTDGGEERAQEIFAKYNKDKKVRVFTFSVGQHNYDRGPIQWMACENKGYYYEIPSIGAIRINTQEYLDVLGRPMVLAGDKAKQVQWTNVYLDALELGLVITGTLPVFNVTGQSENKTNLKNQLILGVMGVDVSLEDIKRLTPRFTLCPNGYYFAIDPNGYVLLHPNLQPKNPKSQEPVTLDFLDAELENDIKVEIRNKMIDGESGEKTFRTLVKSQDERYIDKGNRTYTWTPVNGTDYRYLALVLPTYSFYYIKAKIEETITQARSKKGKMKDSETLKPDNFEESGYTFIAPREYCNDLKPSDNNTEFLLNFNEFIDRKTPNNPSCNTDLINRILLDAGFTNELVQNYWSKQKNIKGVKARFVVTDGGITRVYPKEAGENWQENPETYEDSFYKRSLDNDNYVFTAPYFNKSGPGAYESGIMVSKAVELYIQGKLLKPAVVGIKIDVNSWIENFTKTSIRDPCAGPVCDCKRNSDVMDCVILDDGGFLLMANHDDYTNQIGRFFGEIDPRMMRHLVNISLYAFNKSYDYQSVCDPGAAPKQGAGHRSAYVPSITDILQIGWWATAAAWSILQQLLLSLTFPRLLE
T1 sequence (P54290 945-1091 partner limits assumed): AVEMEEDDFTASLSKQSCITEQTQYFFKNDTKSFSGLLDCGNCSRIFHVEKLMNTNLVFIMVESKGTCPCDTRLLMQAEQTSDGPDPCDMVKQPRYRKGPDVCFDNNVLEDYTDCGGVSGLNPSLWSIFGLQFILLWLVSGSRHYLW
T1 sequence (P54283 whole entry partner): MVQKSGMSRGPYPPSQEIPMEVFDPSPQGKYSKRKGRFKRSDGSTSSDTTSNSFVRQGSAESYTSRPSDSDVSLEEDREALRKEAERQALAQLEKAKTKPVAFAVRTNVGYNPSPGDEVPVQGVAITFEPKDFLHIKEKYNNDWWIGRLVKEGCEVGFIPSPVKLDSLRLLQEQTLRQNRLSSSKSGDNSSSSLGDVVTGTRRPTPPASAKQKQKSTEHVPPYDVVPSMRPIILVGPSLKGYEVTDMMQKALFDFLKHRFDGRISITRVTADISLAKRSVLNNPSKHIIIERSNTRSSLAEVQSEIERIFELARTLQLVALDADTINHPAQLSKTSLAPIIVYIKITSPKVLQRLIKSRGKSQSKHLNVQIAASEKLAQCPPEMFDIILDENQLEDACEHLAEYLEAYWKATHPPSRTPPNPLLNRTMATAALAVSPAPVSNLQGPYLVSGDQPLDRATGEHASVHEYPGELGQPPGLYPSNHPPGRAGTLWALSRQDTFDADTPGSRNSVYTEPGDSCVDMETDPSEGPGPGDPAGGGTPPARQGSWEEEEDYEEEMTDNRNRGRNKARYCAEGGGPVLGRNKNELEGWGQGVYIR

For orientation: IC50 means the concentration at which inhibition is half-maximal. Regarding `CN(CC(=O)N1CCN(C(c2ccccc2)c2ccc(Cl)cc2)CC1)C(c1ccccc1)c1ccccc1` (stereo not shown) [Compound 3, 2-benzhydryl(methyl)amino-1-(4-((4-chlorophenyl)(phenyl)methyl)piperazin-1-yl)ethanone], the IC50 under setting [1] was 2450 nM and the IC50 under setting [2] was 850 nM.
With `CN(CC(=O)N1CCN(C(c2ccccc2)c2cccc(Cl)c2)CC1)C(c1ccccc1)c1ccccc1` (stereo not shown) [Compound 4, 2-benzhydryl(methyl)amino-1-(4-((3-chlorophenyl)(phenyl)methyl)piperazin-1-yl)ethanone], the IC50 by setting is: under setting [1], 1240 nM; under setting [2], 840 nM.
Take `CN(CC(=O)N1CCN(C(c2ccccc2)c2ccccc2Cl)CC1)C(c1ccccc1)c1ccccc1` (stereo not shown) [Compound 5, 2-benzhydryl(methyl)amino-1-(4-((2-chlorophenyl)(phenyl)methyl)piperazin-1-yl)ethanone]: the IC50 reads like this: under setting [1], more than 4670 nM; under setting [2], more than 2940 nM.
On to `CN(CC(=O)N1CCN(C(c2ccccc2)c2cccc(C(F)(F)F)c2)CC1)C(c1ccccc1)c1ccccc1` (stereo not shown) [Compound 7], for which the IC50 is, setting by setting: under setting [1], 1460 nM; under setting [2], 670 nM.
For `CN1CCC(CN2CCN(C(=O)CNC(c3ccccc3)c3ccccc3)CC2)CC1` [Compound 9], in that order: 4000 nM and 2500 nM.
Taken in the same sequence, the figures for `CN1CCC(C(=O)N2CCN(C(=O)CNC(c3ccccc3)c3ccccc3)CC2)CC1` [Compound 10, 2-benzhydrylamino-1-(4-(1-methylpiperidine-4-carbonyl)piperazin-1-yl)ethanone] were more than 4970 nM and more than 2640 nM.
Take `CN1CCC(C(=O)N2CCN(C(=O)CN(C)C(c3ccccc3)c3ccccc3)CC2)CC1` [Compound 11, 2-benzhydryl(methyl)amino-1-(4-(1-methylpiperidine-4-carbonyl)piperazin-1-yl)ethanone]: the IC50 is more than 11800 nM under setting [1] and 7920 nM under setting [2].
In the case of `CN1CCC(CN2CCN(C(=O)CN(C)C(c3ccccc3)c3ccccc3)CC2)CC1` [Compound 12], the IC50 is, setting by setting: under setting [1], 7400 nM; under setting [2], 2070 nM.
In the case of `CN1CCC(C(c2ccccc2)N2CCN(C(=O)CN(C)C(c3ccccc3)c3ccccc3)CC2)CC1` (stereo not shown) [Compound 14, 2-benzhydryl(methyl)amino-1-(4-((1-methylpiperidin-4-yl)(phenyl)methyl)piperazin-1-yl)ethanone], the IC50 under setting [1] was 550 nM and the IC50 under setting [2] was determined as 440 nM.
As for `O=C(CNc1ccccc1)N1CCN(C(c2ccccc2)c2ccccc2)CC1` [Compound 16], the IC50 reads like this: under setting [1], 4300 nM; under setting [2], 800 nM.
On to `O=C(CNc1ccc(Cl)cc1)N1CCN(C(c2ccccc2)c2ccccc2)CC1` [Compound 17, 1-(4-benzhydrylpiperazin-1-yl)-2-(4-chlorophenylamino)ethanone], for which the half-inhibitory concentration (IC50) runs as follows: under setting [1], more than 7600 nM; under setting [2], more than 4600 nM.
With `O=C(CNc1cccc(Cl)c1)N1CCN(C(c2ccccc2)c2ccccc2)CC1` [Compound 18, 1-(4-benzhydrylpiperazin-1-yl)-2-(3-chlorophenylamino)ethanone], the IC50 reads like this: under setting [1], 1290 nM; under setting [2], 1030 nM.
Taken in the same sequence, the figures for `O=C(CNc1cc(F)cc(F)c1)N1CCN(C(c2ccccc2)c2ccccc2)CC1` [Compound 21, 1-(4-benzhydrylpiperazin-1-yl)-2-(3,5-difluorophenylamino)ethanone] were 1400 nM and 700 nM.
As to `O=C(CNc1cc(Cl)cc(Cl)c1)N1CCN(C(c2ccccc2)c2ccccc2)CC1` [Compound 22, 1-(4-benzhydrylpiperazin-1-yl)-2-(3,5-dichlorophenylamino)ethanone], the IC50 stood at 2400 nM under setting [1] and 980 nM under setting [2].
Taken in the same sequence, the figures for `COc1cc(NCC(=O)N2CCN(C(c3ccccc3)c3ccccc3)CC2)cc(OC)c1OC` [Compound 25, 1-(4-benzhydrylpiperazin-1-yl)-2-(3,4,5-trimethoxyphenylamino) ethanone] were 2300 nM and 1500 nM.
For `CC1CN(CC2CCOCC2)CC(C)N1C(=O)COC(c1ccccc1)c1ccccc1` (stereo not shown) [Compound 32, 2-(benzhydryloxy)-1-(2,6-dimethyl-4-((tetrahydro-2H-pyran-4-yl)methyl)piperazin-1-yl)ethanone], in that order: 1000 nM and 640 nM.
Taken in the same sequence, the figures for `CC1CN(CC2CCOCC2)CC(C)N1C(=O)C[S+]([O-])C(c1ccccc1)c1ccccc1` (stereo not shown) [Compound 34, 2-(benzhydrylsulfinyl)-1-(2,6-dimethyl-4-((tetrahydro-2H-pyran-4-yl)methyl)piperazin-1-yl)ethanone] were more than 6600 nM and more than 4700 nM.
Take `O=C(COC(c1ccccc1)c1ccccc1)N1CCN(CC2CCOCC2)CC1` [Compound 35, 2-(benzhydryloxy)-1-(4-((tetrahydro-2H-pyran-4-yl)methyl)piperazin-1-yl)ethanone]: the IC50 under setting [1] was determined as 8300 nM and the IC50 under setting [2] turned out to be 1300 nM.
With `O=C(CNC(c1ccccc1)c1ccccc1)N1CCN(CC2CCOCC2)CC1` [Compound 38, 2-(benzhydrylamino)-1-(4-((tetrahydro-2H-pyran-4-yl)methyl)piperazin-1-yl)ethanone], the half-inhibitory concentration (IC50) is, setting by setting: under setting [1], 9530 nM; under setting [2], 4910 nM.
As for `Cc1cc(CN2CCN(C(=O)COC(c3ccccc3)c3ccccc3)CC2)cc(Cl)n1` [Compound 40, 2-(benzhydryloxy)-1-(4-((2-chloro-6-methylpyridin-4-yl)methyl)piperazin-1-yl)ethanone], the half-inhibitory concentration (IC50) worked out at 1200 nM under setting [1] and 740 nM under setting [2].
For `CN1CCC(CN2CCN(C(=O)COC(c3ccccc3)c3ccccc3)CC2)CC1` [Compound 41, 2-(benzhydryloxy)-1-(4-((1-methylpiperidin-4-yl)methyl)piperazin-1-yl)ethanone], in that order: more than 4800 nM and more than 3200 nM.
Take `CN1CCC(CN2CCN(C(=O)C[S+]([O-])C(c3ccccc3)c3ccccc3)CC2)CC1` (stereo not shown) [Compound 43, 2-(benzhydrylsulfinyl)-1-(4-((1-methylpiperidin-4-yl)methyl)piperazin-1-yl)ethanone]: the IC50 worked out at 4260 nM under setting [1] and 1340 nM under setting [2].
As to `O=C(CSC(c1ccccc1)c1ccccc1)N1CCN(C(c2ccccc2)c2ccccc2)CC1` [Compound 44, 1-(4-benzhydrylpiperazin-1-yl)-2-(benzhydrylthio)ethanone], the IC50 amounted to 600 nM under setting [1] and 270 nM under setting [2].
Take `O=C(C[S+]([O-])C(c1ccccc1)c1ccccc1)N1CCN(C(c2ccccc2)c2ccccc2)CC1` (stereo not shown) [Compound 45, 1-(4-benzhydrylpiperazin-1-yl)-2-(benzhydrylsulfinyl)ethanone]: the half-inhibitory concentration (IC50) under setting [1] was 290 nM and the half-maximal inhibitory concentration (IC50) under setting [2] stood at 200 nM.
For `O=C(CSC(c1ccccc1)c1ccccc1)N1CCN(C(c2ccc(F)cc2)c2ccc(F)cc2)CC1` [Compound 47, 2-(benzhydrylthio)-1-(4-(bis(4-fluorophenyl)methyl)piperazin-1-yl)ethanone], the IC50 reads like this: under setting [1], 4920 nM; under setting [2], 3230 nM.
In the case of `O=C(COC(c1ccccc1)c1ccccc1)N1CCN(C(c2ccccc2)c2ccccc2)C(CO)C1` (stereo not shown) [Compound 50, 2-(benzhydryloxy)-1-(4-benzhydryl-3-hydroxymethylpiperazin-1-yl)ethanone], the half-inhibitory concentration (IC50) reads like this: under setting [1], 400 nM; under setting [2], 230 nM.
